Assay results reported in PubChem BioAssay (NCI).
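Dose response: 5 concentrations. Exposure: 48 h. Format: 96-well plates. Endpoint: linear interpolation; highest concentration if not reached. GI50 marks 50% less growth. TGI denotes the concentration required for complete inhibition of growth.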

How the values were obtained:
Test in all cases: DTP human tumour cell line panel, 48 h
PC-3 prostate = system: PC-3 prostate
IGROV1 ovarian = system: IGROV1 ovarian
SF-268 CNS = system: SF-268 CNS
MALME-3M melanoma = system: MALME-3M melanoma
HS 578T breast = system: HS 578T breast
ACHN renal = system: ACHN renal
HT29 colon = system: HT29 colon
SK-OV-3 ovarian = system: SK-OV-3 ovarian
MOLT-4 leukemia = system: MOLT-4 leukemia
SW-620 colon = system: SW-620 colon
786-0 renal = system: 786-0 renal
NCI-H226 lung = system: NCI-H226 lung
UACC-257 melanoma = system: UACC-257 melanoma
TK-10 renal = system: TK-10 renal
T-47D breast = system: T-47D breast
OVCAR-3 ovarian = system: OVCAR-3 ovarian
HOP-62 NSCLC = system: HOP-62 NSCLC
SF-539 CNS = system: SF-539 CNS
MDA-MB-231 breast = system: MDA-MB-231 breast
SK-MEL-5 melanoma = system: SK-MEL-5 melanoma
SNB-19 CNS = system: SNB-19 CNS
K-562 leukemia = system: K-562 leukemia
OVCAR-8 ovarian = system: OVCAR-8 ovarian
CAKI-1 renal = system: CAKI-1 renal
SK-MEL-28 melanoma = system: SK-MEL-28 melanoma
A549 NSCLC = system: A549 NSCLC
OVCAR-5 ovarian = system: OVCAR-5 ovarian
KM12 colon = system: KM12 colon
HCC-2998 colon = system: HCC-2998 colon
MDA-MB-435 = system: MDA-MB-435
RPMI-8226 leukemia = system: RPMI-8226 leukemia
RXF 393 renal = system: RXF 393 renal
HCT-116 colon = system: HCT-116 colon
NCI-H23 lung = system: NCI-H23 lung
CCRF-CEM leukemia = system: CCRF-CEM leukemia
U251 CNS = system: U251 CNS
DU-145 prostate = system: DU-145 prostate
HCT-15 colon = system: HCT-15 colon
A498 renal = system: A498 renal
SR leukemia = system: SR leukemia
NCI-H460 lung = system: NCI-H460 lung
NCI/ADR-RES ovarian = system: NCI/ADR-RES ovarian
SK-MEL-2 melanoma = system: SK-MEL-2 melanoma
MCF7 breast = system: MCF7 breast
HOP-92 NSCLC = system: HOP-92 NSCLC
COLO 205 colon = system: COLO 205 colon
SF-295 CNS = system: SF-295 CNS
BT-549 breast = system: BT-549 breast
SNB-75 CNS = system: SNB-75 CNS
HL-60(TB) leukemia = system: HL-60(TB) leukemia
LOX IMVI melanoma = system: LOX IMVI melanoma
UACC-62 melanoma = system: UACC-62 melanoma
UO-31 renal = system: UO-31 renal
M14 melanoma = system: M14 melanoma
SN12C renal = system: SN12C renal
OVCAR-4 ovarian = system: OVCAR-4 ovarian
NCI-H522 lung = system: NCI-H522 lung

SMILES: COc1cc(-c2cc(/C=C3\C(=O)Nc4cc(Cl)ccc43)[nH]n2)cc(OC)c1OC
- GI50 (PC-3 prostate): 2.25 µM
- TGI (PC-3 prostate): 7.83 µM
- GI50 (IGROV1 ovarian): 3.45 µM
- TGI (IGROV1 ovarian): 37.2 µM
- GI50 (SF-268 CNS): 3.36 µM
- TGI (SF-268 CNS): 29.1 µM
- GI50 (MALME-3M melanoma): 2.71 µM
- TGI (MALME-3M melanoma): 6.96 µM
- GI50 (HS 578T breast): 2.74 µM
- TGI (HS 578T breast): 9.31 µM
- GI50 (ACHN renal): 3.48 µM
- TGI (ACHN renal): 25.6 µM
- GI50 (HT29 colon): 3.46 µM
- TGI (HT29 colon): 18.6 µM
- GI50 (SK-OV-3 ovarian): 3.29 µM
- TGI (SK-OV-3 ovarian): 25.1 µM
- GI50 (MOLT-4 leukemia): 2.48 µM
- TGI (MOLT-4 leukemia): 6.43 µM
- GI50 (SW-620 colon): 2.87 µM
- TGI (SW-620 colon): 14.9 µM
- GI50 (786-0 renal): 14.4 µM
- TGI (786-0 renal): 60.1 µM
- GI50 (NCI-H226 lung): 2.29 µM
- TGI (NCI-H226 lung): 7.94 µM
- GI50 (UACC-257 melanoma): 2.43 µM
- TGI (UACC-257 melanoma): 6.13 µM
- GI50 (TK-10 renal): 5.95 µM
- TGI (TK-10 renal): 32.3 µM
- GI50 (T-47D breast): 2.13 µM
- TGI (T-47D breast): 6.79 µM
- GI50 (OVCAR-3 ovarian): 2.74 µM
- TGI (OVCAR-3 ovarian): 15.1 µM
- GI50 (HOP-62 NSCLC): 2.16 µM
- TGI (HOP-62 NSCLC): 6.46 µM
- GI50 (SF-539 CNS): 3.92 µM
- TGI (SF-539 CNS): 21.8 µM
- GI50 (MDA-MB-231 breast): 3.14 µM
- TGI (MDA-MB-231 breast): > 100 µM
- GI50 (SK-MEL-5 melanoma): 1.43 µM
- TGI (SK-MEL-5 melanoma): 2.79 µM
- GI50 (SNB-19 CNS): 3.45 µM
- TGI (SNB-19 CNS): > 100 µM
- GI50 (K-562 leukemia): 2.82 µM
- TGI (K-562 leukemia): 22.6 µM
- GI50 (OVCAR-8 ovarian): 2.17 µM
- TGI (OVCAR-8 ovarian): 5.32 µM
- GI50 (CAKI-1 renal): 2.71 µM
- TGI (CAKI-1 renal): 22.5 µM
- GI50 (SK-MEL-28 melanoma): 3.91 µM
- TGI (SK-MEL-28 melanoma): 26.4 µM
- GI50 (A549 NSCLC): 3.23 µM
- TGI (A549 NSCLC): 15 µM
- GI50 (OVCAR-5 ovarian): 4.27 µM
- TGI (OVCAR-5 ovarian): 78.1 µM
- GI50 (KM12 colon): 2.27 µM
- TGI (KM12 colon): 6.93 µM
- GI50 (HCC-2998 colon): 7.42 µM
- TGI (HCC-2998 colon): > 100 µM
- GI50 (MDA-MB-435): 1.96 µM
- TGI (MDA-MB-435): 4.18 µM
- GI50 (RPMI-8226 leukemia): 2.02 µM
- TGI (RPMI-8226 leukemia): 4.92 µM
- GI50 (RXF 393 renal): 5.66 µM
- TGI (RXF 393 renal): 42 µM
- GI50 (HCT-116 colon): 2.74 µM
- TGI (HCT-116 colon): 10.3 µM
- GI50 (NCI-H23 lung): 3.84 µM
- TGI (NCI-H23 lung): 18.1 µM
- GI50 (CCRF-CEM leukemia): 2.63 µM
- TGI (CCRF-CEM leukemia): 8.43 µM
- GI50 (U251 CNS): 2.84 µM
- TGI (U251 CNS): 14.8 µM
- GI50 (DU-145 prostate): 3.46 µM
- TGI (DU-145 prostate): 14.5 µM
- GI50 (HCT-15 colon): 2.59 µM
- TGI (HCT-15 colon): 7.77 µM
- GI50 (A498 renal): 2.24 µM
- TGI (A498 renal): 8.22 µM
- GI50 (SR leukemia): 2.33 µM
- TGI (SR leukemia): 5.66 µM
- GI50 (NCI-H460 lung): 2.1 µM
- TGI (NCI-H460 lung): 4.9 µM
- GI50 (NCI/ADR-RES ovarian): 2.74 µM
- TGI (NCI/ADR-RES ovarian): 7.49 µM
- GI50 (SK-MEL-2 melanoma): 2.75 µM
- TGI (SK-MEL-2 melanoma): 7.5 µM
- GI50 (MCF7 breast): 2.26 µM
- TGI (MCF7 breast): 6.39 µM
- GI50 (HOP-92 NSCLC): 1.77 µM
- TGI (HOP-92 NSCLC): 8.89 µM
- GI50 (COLO 205 colon): 1.93 µM
- TGI (COLO 205 colon): 4.36 µM
- GI50 (SF-295 CNS): 2.84 µM
- TGI (SF-295 CNS): 8.89 µM
- GI50 (BT-549 breast): 2.54 µM
- TGI (BT-549 breast): 7.58 µM
- GI50 (SNB-75 CNS): 1.87 µM
- TGI (SNB-75 CNS): 8.17 µM
- GI50 (HL-60(TB) leukemia): 2.45 µM
- TGI (HL-60(TB) leukemia): 7.59 µM
- GI50 (LOX IMVI melanoma): 1.81 µM
- TGI (LOX IMVI melanoma): 4.06 µM
- GI50 (UACC-62 melanoma): 1.76 µM
- TGI (UACC-62 melanoma): 4.3 µM
- GI50 (UO-31 renal): 2.66 µM
- TGI (UO-31 renal): 15.6 µM
- GI50 (M14 melanoma): 2.42 µM
- TGI (M14 melanoma): 6.99 µM
- GI50 (SN12C renal): 2.68 µM
- TGI (SN12C renal): 14.2 µM
- GI50 (OVCAR-4 ovarian): 2.91 µM
- TGI (OVCAR-4 ovarian): 15 µM
- GI50 (NCI-H522 lung): 2.4 µM
- TGI (NCI-H522 lung): 6.09 µM
